{"source": "patent US7632819B1", "about": "“Methods and compositions for inhibiting PKC delta cleavage for treatment and prevention of neurodegeneration and apoptosis” (Iowa State University Research Foundation, Inc., priority 2004, dated 2009)", "system": "N27 cells", "conditions": "for potency in attenuating apoptosis compared with caspase-3 inhibitor DEVD-FMK, in words: 6-OHDA model", "protocol": "[…] Z is the abbreviation for N-benzyloxycarbonyl. Untreated cells were used as control samples. After the treatment, the cells were collected by trypsinization (Trypsin 0.25%, 1 mM EDTA), centrifuged at 200×g for 5 min, washed with PBS twice, then lysed. The lysate was used for DNA fragmentation assay.\nDNA fragmentation assays were performed using a recently developed Cell Death Detection ELISA Plus Assay Kit. This is a fast, highly sensitive and reliable assay for the detection of early changes in apoptotic cell death. After treatments, 20 μl of cell lysate was processed according to the manufacturer's protocol. The assay solution consisted of a mixture of anti-histone biotin and anti-DNA-HRP directed against various histones and antibodies to both single stranded DNA and double stranded DNA, the major constituents of nucleosomes. After 2 hr incubation, unbound components were removed by washing with the incubation buffer supplied with the kit. Quantification of the nucleosomes retained by anti-DNA-HRP in the immunocomplex was determined spectrophotometrically with ABTS (2,2′-azino-di[3-ethoxybenzyl thiazoline sulfonate) as a HRP substrate (supplied with the kit). Measurements were made at 405 nm against an ABTS solution as a blank (reference wave length 490 nm).\nChemicals. Protease cocktail, ATP, protein-A-sepharose, protein-G-sepharose and anti-â-actin antibody were obtained from Sigma-Aldrich (St. Louis, Mo.); mouse tyrosine hydroxylase antibody was purchased from Chemicon (Temecula, Calif.); the rabbit polyclonal antibody for tyrosine hydroxylase was obtained from Calbiochem Bioscience, Inc. (King of Prussia, Pa.); rabbit PKCδ antibody was purchased from Santa Cruz Biotechnology, Inc. (Santa Cruz, Calif.); anti-rabbit and anti-mouse secondary antibodies and the ECL chemiluminescence kit were purchased from Amersham Pharmacia Biotech. (Piscataway, N.J.). Alexa 488 conjugated antirabbit/mouse, Cy3 conjugated anti-rabbit/mouse antibody and Hoechst 33342 were purchased from Molecular Probes, Inc. (Eugene, Oreg.). [ã-32P]ATP was purchased from Perkin Elmer Life Science Products (Boston, Mass.). The Bradford protein assay kit was purchased from Bio-Rad Laboratories (Hercules, Calif.). RPMI, fetal bovine serum, -glutamine, penicillin, and streptomycin were purchased from Invitrogen (Gaithersburg, Md.). Quantity One 4.2.0 software was purchased from Bio-Rad. Design and synthesis of z-DIPD-fmk (SEQ ID NO:5). To develop a cell permeable peptide inhibitor to specifically block PKCδ cleavage, we designed the tetrapeptide Asp-Ile-Pro-Asp (DIPD) (SEQ ID NO:5) corresponding to position 324-327 in rat PKCδ cDNA representing the caspase-3 cleavage site. Since this peptide is directed against the caspase-3 cleavage site of PKCδ, it should prevent the proteolytic cleavage and activation of PKCδ mediated by caspase-3. The custom synthesis of the tetrapeptide Z-Asp(OMe)-Ile-Pro-Asp(OMe)-FMK (SEQ ID NO:5) was performed at MP Biomedicals (Irvine, Calif.), a quality company that specializes in developing cell permeable peptide inhibitors directed against apoptosis cell signaling molecules. Briefly, the synthesis was performed with the reaction of Boc-D(OMe)-OH with MBFM (Magnesium benzyl fluoromalonate) to produce Beta-Keto fluoroester, followed by hydrogenation with Pd/c to produce Boc-D(OMe)FK, which was converted into Tfa salt using trifluoroacetic acid. Coupling of Tfa salt with Z-D(OMe)—I—P—OH in DMF with HOBT, HBTU DIEA and workup produced a crude product which was purified by column chromatography over silica gel. Elution with EtOAC:MeOH 95:5 gave pure fractions which were mixed and dried. Crystallization with EtOAC/Hexane, filtration and drying produced the pure product. Animals.", "note": "Read-outs that look alike come from different tables or passages of the source. Where a SMILES comes first, the peptide text is derived from it. The star is where a group is joined. Cbz = O=C(OCc1ccccc1)*; CH2F = FC*"}
{"compound": "CC[C@H](C)[C@H](NC(=O)[C@H](CC(=O)OC)NC(=O)OCc1ccccc1)C(=O)N1CCC[C@H]1C(=O)N[C@@H](CC(=O)OC)C(=O)CF", "note": "[z-DIPD-fmk, Z-Asp(OMe)-Ile-Pro-Asp(OMe)-FMK] (Cbz-D(OMe)IPD(OMe)-CH2F)", "values": [{"measurement": "effect on 6-OHDA-induced DNA fragmentation / apoptotic cell death", "setting": "100 μM 6-OHDA 24 hr, concentration not stated or dose-response 1-50 μM, listed as N-benzyloxycarbonyl-Asp(OMe)-Ile-Pro-Asp(OMe)-FMK", "result": "effectively blocked"}, {"measurement": "effect on 6-OHDA-induced DNA fragmentation", "setting": "100 μM 6-OHDA 24 hr, inhibitor 50 μM", "result": "completely blocked"}, {"measurement": "effect on MPP+-induced DNA fragmentation", "setting": "300 μM MPP+ 36 hr, inhibitor 50 μM", "result": "significantly attenuated"}, {"measurement": "potency in attenuating apoptosis compared with caspase-3 inhibitor DEVD-FMK, in words", "result": "much more potent"}, {"measurement": "potency in attenuating apoptosis compared with caspase-3 inhibitor DEVD-FMK, in words", "setting": "listed as N-benzyloxycarbonyl-Asp(OMe)-Ile-Pro-Asp(OMe)-FMK", "result": "more potent"}, {"measurement": "effect on MPP+-induced DNA fragmentation", "setting": "MPP+, inhibitor concentration not stated", "result": "dose-dependently attenuated"}, {"measurement": "effect on MPP+-induced DNA fragmentation", "setting": "MPP+, inhibitor concentration not stated, listed as N-benzyloxycarbonyl-Asp(OMe)-Ile-Pro-Asp(OMe)-FMK", "result": "inhibited"}, {"measurement": "potency relative to z-DEVD-fmk at protecting against 6-OHDA-induced apoptotic cell death", "setting": "from IC50 values", "result": "at least 3 times"}, {"measurement": "effect on 6-OHDA-induced DNA fragmentation", "setting": "inhibitor as low as 3 μM", "result": "almost completely inhibits"}, {"measurement": "IC50", "setting": "read-out: IC50, 6-OHDA-induced DNA fragmentation (apoptotic cell death), 100 μM 6-OHDA 24 hr, inhibitor 1-50 μM", "result": 6, "unit": "µM"}]}
